“And” between values parts separate entries of the source, which are not always exact repeats. Identical values can stand only once.
Tests used:
Format in all cases: toxicity, cell-based
HEK-293T = assay: Incucyte cell viability with HEK293T; details: human, 10 µM, compound concentration 10 uM
Fibroblast = assay: Incucyte cell viability with human fibroblast; details: 10 µM, compound concentration 10 uM
U2OS = assay: Incucyte cell viability with U2OS; details: human, 10 µM, compound concentration 10 uM
Also: unitless GR value; below 1 slowed growth and below 0 cell loss.

| SMILES | Growth Rate (HEK-293T; 6 h, replicate number 2) | Growth Rate (HEK-293T; 12 h, replicate number 2) | Growth Rate (HEK-293T; 18 h, replicate number 2) | Growth Rate (HEK-293T; 24 h, replicate number 2) | Growth Rate (Fibroblast; 6 h, replicate number 1) | Growth Rate (Fibroblast; 12 h, replicate number 1) | Growth Rate (Fibroblast; 12 h, replicate number 2) | Growth Rate (Fibroblast; 18 h, replicate number 1) | Growth Rate (Fibroblast; 24 h, replicate number 1) | Growth Rate (Fibroblast; 24 h, replicate number 2) | Growth Rate (U2OS; 0 h, replicate number 2) | Growth Rate (U2OS; 6 h, replicate number 1) | Growth Rate (U2OS; 6 h, replicate number 2) | Growth Rate (U2OS; 12 h, replicate number 2) | Growth Rate (U2OS; 18 h, replicate number 1) | Growth Rate (U2OS; 24 h, replicate number 1) | Growth Rate (U2OS; 24 h, replicate number 2) | Growth Rate (HEK-293T; 6 h, replicate number 1) | Growth Rate (HEK-293T; 18 h, replicate number 1) | Growth Rate (Fibroblast; 18 h, replicate number 2) | further results |
| --- | --- | --- | --- | --- | --- | --- | --- | --- | --- | --- | --- | --- | --- | --- | --- | --- | --- | --- | --- | --- | --- |
| CCCCCCCC/C=C\CCCCCCCC(=O)NCCO [OLEOYLETHANOLAMIDE] | 0.43 | 0.83 | 0.75 | 0.62 | 0.19 | 0.64 | 0.96 | 0.35 | 0.78 | 0.98 | 0.62 | 0.87 | 0.54 | 0.68 | 0.81 | 0.79 | 0.76 |  |  |  | Growth Rate (HEK-293T; 0 h, replicate number 1): -0.38; Growth Rate (U2OS; 0 h, replicate number 1): -0.18; Growth Rate (U2OS; 12 h, replicate number 1): 0.87; Growth Rate (U2OS; 18 h, replicate number 2): 0.74 |
| CCCCCCCC/C=C\CCCCCCCC(=O)NCc1ccc(O)c(OC)c1 [OLVANIL] |  |  |  |  |  |  | 0.83 |  | 0.91 | 0.68 |  | 0.77 | 0.84 | 0.94 | 0.88 | 0.87 |  | -0.94 | -0.47 | 0.53 | Growth Rate (HEK-293T; 0 h, replicate number 2): 0.7; Growth Rate (HEK-293T; 12 h, replicate number 1): -0.75; Growth Rate (HEK-293T; 24 h, replicate number 1): -0.25; Growth Rate (Fibroblast; 0 h, replicate number 1): 0.97; Growth Rate (Fibroblast; 0 h, replicate number 2): -0.71 |
| O=C(O)/C=C/c1ccc(Cn2ccnc2)cc1 [OZAGREL] |  | 0.92 |  |  |  |  |  | 0.97 | 0.78 |  | 0.65 | 0.91 |  | 0.94 |  | 0.94 |  |  | 0.96 |  | Growth Rate (HEK-293T; 0 h, replicate number 1): 0.5; Growth Rate (HEK-293T; 0 h, replicate number 2): 0.4; Growth Rate (Fibroblast; 0 h, replicate number 1): -1; Growth Rate (Fibroblast; 0 h, replicate number 2): -0.85 |
| CC(=O)O[C@H]1C(=O)[C@@]2(C)[C@H]([C@H](OC(=O)c3ccccc3)[C@]3(O)C[C@H](OC(=O)[C@H](O)[C@@H](NC(=O)c4ccccc4)c4ccccc4)C(C)=C1C3(C)C)[C@]1(OC(C)=O)CO[C@@H]1C[C@@H]2O [PACLITAXEL] | -0.69 | -0.41 | -0.22 | -0.02 | -0.64 | -0.7 | -0.57 | -0.54 | -0.39 | -0.34 | -0.23 | -0.32 | -0.43 | -0.45 | -0.26 | -0.07 | -0.18 | -0.33 | -0.08 | -0.67 | Growth Rate (HEK-293T; 12 h, replicate number 1): -0.21; Growth Rate (HEK-293T; 24 h, replicate number 1): 0.05; Growth Rate (Fibroblast; 0 h, replicate number 1): -1; Growth Rate (Fibroblast; 6 h, replicate number 2): -0.99; Growth Rate (U2OS; 0 h, replicate number 1): -0.26; Growth Rate (U2OS; 12 h, replicate number 1): -0.21; Growth Rate (U2OS; 18 h, replicate number 2): -0.43 |
| CC(=O)c1c(C)c2cnc(Nc3ccc(N4CCNCC4)cn3)nc2n(C2CCCC2)c1=O [PALBOCICLIB] | 0.69 | 0.81 | 0.8 | 0.75 | 0.91 | 0.92 |  | 0.87 | 0.79 |  |  | 0.72 and 0.58 | 0.97 |  | 0.59 and 0.72 | 0.76 and 0.92 |  | 0.61 | 0.78 | 0.98 | Growth Rate (HEK-293T; 0 h, replicate number 1): 0.2; Growth Rate (HEK-293T; 0 h, replicate number 2): 0.78; Growth Rate (HEK-293T; 12 h, replicate number 1): 0.77; Growth Rate (HEK-293T; 24 h, replicate number 1): 0.83 and 0.98; Growth Rate (Fibroblast; 0 h, replicate number 1): -0.2; Growth Rate (U2OS; 12 h, replicate number 1): 0.87 and 0.84 |
| Cl.O=C1c2cccc3c2[C@H](CCC3)CN1[C@@H]1CN2CCC1CC2 [PALONOSETRON HYDROCHLORIDE] | -0.08 | 0.03 | 0.08 | 0.19 | -0.99 |  |  |  |  | 0.92 | -0.79 |  |  |  |  | 0.92 | 0.98 | 0.51 | 0.55 |  | Growth Rate (HEK-293T; 0 h, replicate number 1): 0.61; Growth Rate (HEK-293T; 12 h, replicate number 1): 0.41; Growth Rate (HEK-293T; 24 h, replicate number 1): 0.34; Growth Rate (Fibroblast; 0 h, replicate number 2): 0.54; Growth Rate (U2OS; 0 h, replicate number 1): -0.52 |
| Cl.Cl.Fc1ccc([C@@H]2CCNC[C@H]2COc2ccc3c(c2)OCO3)cc1.Fc1ccc([C@@H]2CCNC[C@H]2COc2ccc3c(c2)OCO3)cc1.O [PAROXETINE HYDROCHLORIDE] |  |  |  | 0.86 | -0.26 | -1 | 0.54 |  |  | 0.62 | -1 | 0.82 | 0.89 | 0.84 |  |  | 0.98 | 0.25 |  | 0.59 | Growth Rate (Fibroblast; 6 h, replicate number 2): -1; Growth Rate (U2OS; 18 h, replicate number 2): 0.89 |
| CCN1C(=O)N(c2c(F)c(OC)cc(OC)c2F)Cc2cnc3[nH]c(CN4CCOCC4)cc3c21 [PEMIGATINIB] | 0.25 | 0.59 | 0.33 | 0.3 | 0.04 | 0.42 | 0.45 | 0.23 | 0.19 | 0.49 | -0.02 | 0.58 | -0.01 | 0.07 | 0.5 | 0.62 | 0.19 |  | 0.68 | 0.53 | Growth Rate (HEK-293T; 0 h, replicate number 1): 0; Growth Rate (HEK-293T; 12 h, replicate number 1): 0.76; Growth Rate (HEK-293T; 24 h, replicate number 1): 0.57; Growth Rate (Fibroblast; 0 h, replicate number 2): 0.11; Growth Rate (Fibroblast; 6 h, replicate number 2): 0.12; Growth Rate (U2OS; 0 h, replicate number 1): -0.31; Growth Rate (U2OS; 12 h, replicate number 1): -0.36; Growth Rate (U2OS; 18 h, replicate number 2): 0.2 |
| FC(F)(F)c1ccc(CNc2ccc(Cc3c[nH]c4ncc(Cl)cc34)cn2)cn1 [PEXIDARTINIB] |  |  |  |  | 0.64 | 0.87 | 0.34 |  |  |  |  |  |  |  |  | 0.95 | 0.98 |  |  | 0.9 | Growth Rate (HEK-293T; 0 h, replicate number 2): -0.38; Growth Rate (Fibroblast; 0 h, replicate number 1): -1; Growth Rate (Fibroblast; 6 h, replicate number 2): 0.13 |
| CC(=O)NCC(=O)N1[C@@H]2CC[C@H]1c1ccc(Nc3ncc(C(F)(F)F)c(NC4CCC4)n3)cc12 [PF-03814735] | -0.94 | -0.75 | -0.55 | -0.39 | -1 |  | 0.65 | 0.52 | 0.86 | 0.08 |  |  | 1 | -0.14 | 0.03 | 0.02 | -0.08 | -0.95 | -0.72 | 0.15 | Growth Rate (HEK-293T; 12 h, replicate number 1): -0.89; Growth Rate (HEK-293T; 24 h, replicate number 1): -0.57; Growth Rate (Fibroblast; 0 h, replicate number 1): -0.26; Growth Rate (U2OS; 0 h, replicate number 1): -0.94; Growth Rate (U2OS; 12 h, replicate number 1): -0.05; Growth Rate (U2OS; 18 h, replicate number 2): -0.08 |
